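Compound exposure: 48 hours, 5 concentrations, 96-well plates. Definition used: TGI = concentration required for complete inhibition of growth.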
Experiments:
Experiment in all cases: NCI tumour cell line growth inhibition, 48 h
NCI/ADR-RES ovarian = tested on: NCI/ADR-RES ovarian
KM12 colon = tested on: KM12 colon
RPMI-8226 leukemia = tested on: RPMI-8226 leukemia
SF-539 CNS = tested on: SF-539 CNS
EKVX NSCLC = tested on: EKVX NSCLC
SW-620 colon = tested on: SW-620 colon
NCI-H460 lung = tested on: NCI-H460 lung
UO-31 renal = tested on: UO-31 renal
786-0 renal = tested on: 786-0 renal
CCRF-CEM leukemia = tested on: CCRF-CEM leukemia
T-47D breast = tested on: T-47D breast
HS 578T breast = tested on: HS 578T breast
HT29 colon = tested on: HT29 colon

| Compound | TGI (NCI/ADR-RES ovarian) [µM] | TGI (KM12 colon) [µM] | TGI (RPMI-8226 leukemia) [µM] | TGI (SF-539 CNS) [µM] | TGI (EKVX NSCLC) [µM] | TGI (SW-620 colon) [µM] | TGI (NCI-H460 lung) [µM] | TGI (UO-31 renal) [µM] | TGI (786-0 renal) [µM] | TGI (CCRF-CEM leukemia) [µM] | TGI (T-47D breast) [µM] | TGI (HS 578T breast) [µM] | TGI (HT29 colon) [µM] |
| --- | --- | --- | --- | --- | --- | --- | --- | --- | --- | --- | --- | --- | --- |
| c1ccc(C(NCC2CCO2)(c2ccccc2)c2ccccc2)cc1 (stereo not given) | 28.9 | 28.8 | > 100 | 33.6 | 30.8 | 44.4 | 33.9 | 25.3 | 41.6 | > 100 |  |  |  |
| CC1=NC2=Nc3nc(C)cc[n+]3CN2C=C1 | > 100 |  | 67.5 | > 100 | 75.8 | > 100 | > 100 | > 100 | > 100 |  | > 100 | > 100 | > 100 |
| CN(C)CCNC(=O)c1ccc(NCCCN(C)CCCNc2ccc(C(=O)NCCN(C)C)c3[nH]c4ccccc4c(=O)c23)c2c(=O)c3ccccc3[nH]c12 | 16 | 0.627 | 0.419 | 2.24 | 0.674 |  | 0.12 | 1.9 | 0.312 | 0.406 | 1.85 |  | 0.236 |
| CCC1(N=[N+]=[N-])C(=O)c2ccccc2N(C)C1=O (stereo not given) |  | > 100 |  | > 100 | > 100 | > 100 | > 100 | > 100 | > 100 | > 100 |  |  | > 100 |
| O=C1CC(c2ccccc2)C2(C(=O)NC(=S)NC2=O)C(c2ccccc2)C1 (stereo not given) | > 75 | > 75 | 73.3 | > 75 | > 75 | > 75 | > 75 | > 75 | > 75 | > 75 | > 75 |  | > 75 |
| O=C(NCCN1CCOCC1)c1cn2c(ccc3sc4ccccc4c(=O)c32)n1 | > 100 | > 100 | 41.2 | > 100 | > 100 | 25.3 | 18.3 | > 100 | 40 |  |  | 47.3 | 25.6 |
| Brc1ccc(C[P+]2(c3ccccc3)CCCCC2)cc1 |  | > 100 | > 100 | > 100 | > 100 | > 100 | > 100 | > 100 | > 100 | > 100 |  |  | > 100 |
| C=C1C(=O)O[C@H]2C[C@@]3(COC(C)=O)C=COC=C(COC(=O)C(C)C)C3CC12 (stereo not given in full) | > 100 | > 100 | 63.6 | > 100 | > 100 | > 100 | > 100 | > 100 | > 100 | 63.8 |  | > 100 | > 100 |
| O=S(=O)(O)c1cc(N=Nc2c(O)ccc3ccccc23)ccc1/C=C/c1ccc(N=Nc2c(O)ccc3ccccc23)cc1S(=O)(=O)O | > 100 | > 100 | > 100 |  | > 100 | > 100 |  | > 100 | > 100 |  | > 100 | > 100 | > 100 |
| O=C(O)CCC(=O)c1ccc2c(c1)C(C(=O)O)CC2 (stereo not given) | > 100 | > 100 | > 100 | > 100 | > 100 | > 100 | > 100 | > 100 | > 100 |  | > 100 | > 100 | > 100 |
| N#CN/C(N)=N/C/N=C(\N)NC#N |  | > 100 | > 100 | > 100 | > 100 | 36 | > 100 | > 100 | 60.8 | > 100 |  |  | > 100 |
| Cc1ccc(SC2C(=O)C3CC(OCc4ccccc4)C2(C)C3(C)C)cc1 (stereo not given) | > 100 | > 100 |  | > 100 | > 100 | > 100 | > 100 | > 100 | > 100 | > 100 | > 100 | > 100 | > 100 |
| OC1(c2ccc(-c3ccccc3)cc2)c2ccccc2C2=NCCN21 (stereo not given) | > 100 | 54.4 | > 100 |  |  | > 100 | > 100 | > 100 | 33.1 | > 100 | > 100 | 75.4 | 50.3 |
| CO/N=C(/C)c1cccc(Nc2nc3ccccc3c3[nH]c4ccccc4c23)c1 | 25.1 | 14.2 |  | 28.1 |  | 27.5 | 11.3 | 22.1 | 21.5 |  | 6.9 | 35.8 | 11.2 |
| Cc1cnc2sn(-c3ccc([N+](=O)[O-])cc3)c(=O)c2c1 | > 100 | > 100 | > 100 |  | > 100 | > 100 | > 100 | > 100 | > 100 |  | > 100 | > 100 | > 100 |
| Cc1nc(CC#N)n[nH]1 | > 100 | > 100 | > 100 | > 100 | > 100 | > 100 |  | > 100 | > 100 | > 100 |  |  | > 100 |
| NC(=S)/N=C(/c1nc2ccc(Cl)cc2[nH]c1=O)C(O)c1ccccc1Cl (stereo not given) |  | > 100 | > 100 | > 100 | > 100 | > 100 | > 100 | > 100 | > 100 | > 100 |  |  | > 100 |
| [N-]=[N+]=NC(c1cn(C2CC(O)C(CO)O2)c(=O)[nH]c1=O)C(Br)Br (stereo not given) |  | > 100 | > 100 | > 100 | > 100 | > 100 | > 100 | > 100 | > 100 | > 100 |  |  | > 100 |
| O=C(/C=C/c1ccc(-c2ccccc2)cc1)NCc1ccc(C(=O)NCc2ccccc2)cc1 | > 100 | > 100 |  | > 100 | > 100 | > 100 | > 100 | > 100 | > 100 | > 100 | > 100 | > 100 | > 100 |
| O=C1c2ccccc2C(=O)c2cc(N=Nc3c(O)ccc4ccccc34)ccc21 | > 100 | > 100 | > 100 |  | > 100 | > 100 |  | > 100 | > 100 | > 100 | > 100 | > 100 | > 100 |

From PubChem BioAssay (NCI)
